# Test results: US5428042A, “1-(2H-1-oxo-3,4-dihydronaphtyl-6-yl)-acetyl-piperidines as kappa agonists” (Dr Lo Zambeletti S.p.A., priority 1990, dated 1995)
# Structures can show the parent of a compound that is named as a salt.
# Key:
# [1] = P-phenylquinone-induced abdominal writhing test in mice (analgesia, mouse writhing, graded); format: in vivo, mouse (male Charles River, Swiss Strain); details: sc, 20 min, 20 min pretreatment, p-phenylquinone 2 mg/Kg i.p., 8 min observation
# Excerpt: The pharmacological activity of the compounds of this invention is illustrated by the mouse writhing test, described as follows:
# P-phenylquinone-induced abdominal writhing test in mice
# The methodology employed is based on that described by Sigmund et al, Proc. Soc. Exptl. Biol. 95, 729/1957, modified by Milne and Twomey, Agents and Actions, 10, 31/1980.
# Male Charles River mice (Swiss Strain), 25-36 g body weight, were used. Animals were allowed food and water ad libitum and were randomized into groups of 10 prior to experimentation. Test compounds were dissolved in either distilled water or distilled water plus 0.1M AMS, and administered by the subcutaneous route in a final volume of 10 ml/Kg. Control animals received 10 ml/Kg of the appropriate vehicle alone. Following a pretreatment period of 20 min., mice were injected intraperitoneally with p-phenylquinone, 2 mg/Kg at 37° C. in a final volume of 10 mg/kg. […] During this period the number of abdominal writhing responses per animal were recorded where writhing consists of an intermittent contraction of the abdomen associated with hind leg extension.
# The degree of antinociceptive protection afforded by the test compound was determined as the mean number of writhing responses observed in the treated group (T) expressed as a percentage of the mean number of writhing responses in the control group (C) according to the following formula:
# [1-(T/C]×100%=% graded protection
# kappa brain receptor = biological target: T1, kappa brain receptor (Cavia porcellus, UniProt P41144); assay: Kappa brain receptor binding (binding to kappa sites); details: guinea pig brain homogenate, tritiated kappa selective compound, 40 min, 25° C.
# T1 construct: fresh guinea pig brain homogenates; from tissue; host or cells: guinea pig whole brain without cerebellum, fresh homogenate
# Protocol: Radio receptor binding to kappa site is performed on fresh guinea pig brain homogenates prepared according to Kosterlitz (1981).
# Whole brain without cerebellum is homogenized in 50 mM Tris-buffer (pH 7.4 at 0° C.) and centrifuged at 49,000×g for 10 min.
# The pellet is then resuspended in the same buffer, incubated at 37° C. for 45 min and centrifuged again.
# 1.9 ml of the final homogenate (1:100 in Tris pH 7.4, 0° C.) is used for the binding assay.
# The binding to the kappa sites is performed using a tritiated kappa selective compound. Final homogenate with solutions of the cold ligand and of the labelled ligand is incubated for 40 min at 25° C., filtered through Whatman GF/C glass filter discs and washed. The radioactivity bound to the filters is counted by liquid scintillation spectrophotometry.
# The non-specific binding is determined in the presence of 500 nM of the benzomorphan non-selective compound Mr 2266.
# The equilibrium dissociation constant […] and the maximum binding capacity (Bmax) are determined from the analysis of saturation curves, while the inhibition constant (Ki) is determined from the analysis of competition experiments (Hill 1910; Scatchard 1949; Cheng and Prusoff 1973; Gillan et al 1980).
# T1 sequence (P41144 whole entry): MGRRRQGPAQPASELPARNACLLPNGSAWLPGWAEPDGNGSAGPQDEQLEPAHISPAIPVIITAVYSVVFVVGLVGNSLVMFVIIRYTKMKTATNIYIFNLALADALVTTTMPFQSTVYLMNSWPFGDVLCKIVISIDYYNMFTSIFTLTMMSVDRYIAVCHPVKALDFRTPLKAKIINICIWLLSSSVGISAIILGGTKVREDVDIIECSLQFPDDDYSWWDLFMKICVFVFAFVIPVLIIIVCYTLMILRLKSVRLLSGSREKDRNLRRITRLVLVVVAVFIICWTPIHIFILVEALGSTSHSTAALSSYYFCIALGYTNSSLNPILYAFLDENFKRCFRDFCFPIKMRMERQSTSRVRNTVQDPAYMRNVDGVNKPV
Compound,ED50 [1],Ki (kappa brain receptor)
"C#CCN(C)C[C@@H]1CCCCN1C(=O)Cc1ccc2c(c1)CCCC2=O [Example 16, (2S)-1-[1-oxo-3,4-dihydro-(2H)-napht-6-yl]acetyl-2-(N-methyl-N-propargyl)aminomethyl piperidine hydrochloride]",0.056 mg/kg,
"CN(C)CC1CCC(C)(C)CN1C(=O)Cc1ccc2c(c1)CCCC2=O (racemic) [Example 6, (±)-1-[1-oxo-3,4-dihydro-(2H)-napht-6-yl]acetyl-2-dimethylaminomethyl-5,5-dimethyl piperidine hydrochloride]",0.641 mg/kg,88.7 nM
"C=CCN(C)C[C@@H]1CCCCN1C(=O)Cc1ccc2c(c1)CCCC2=O [Example 11, (2S)-1-[1-oxo-3,4-dihydro-(2H)-napht-6-yl]acetyl-2-(N-allyl-N-methyl)aminomethyl piperidine hydrochloride]",0.13 mg/kg,~50 nM
"CN(C)C[C@@H]1CCCCN1C(=O)Cc1ccc2c(c1)CCCC2=O [Example 1, (2S)-1-[1-oxo-3,4-dihydro-(2H)-napht-6-yl]acetyl-2-dimethyl-aminomethyl piperidine hydrochloride]",0.154 mg/kg,
"CCN(C)C[C@@H]1CCCCN1C(=O)Cc1ccc2c(c1)CCCC2=O [Example 2, (2S)-1-[1-oxo-3,4-dihydro-(2H)-napht-6-yl]acetyl-2-(N-methyl-N-ethyl)aminomethyl piperidine hydrochloride]",0.061 mg/kg,
"CCN(CC)C[C@@H]1CCCCN1C(=O)Cc1ccc2c(c1)CCCC2=O [Example 3, (2S)-1-[1-oxo-3,4-dihydro-(2H)-napht-6-yl]acetyl-2-diethylaminomethyl piperidine hydrochloride]",0.427 mg/kg,
"CN(C[C@@H]1CCCCN1C(=O)Cc1ccc2c(c1)CCCC2=O)C1CCC1 [Example 17, (2S)-1-[1-oxo-3,4-dihydro-(2H)-napht-6-yl]acetyl-2-(N-cyclobutyl-N-methyl)aminomethyl piperidine hydrochloride]",0.127 mg/kg,
"CN(C)C[C@@H]1CC(C)(C)CCN1C(=O)Cc1ccc2c(c1)CCCC2=O [Example 15, (-)-1-[1-oxo-3,4-dihydro-(2H)-napht-6-yl]acetyl-2-dimethylaminomethyl-4,4-dimethylpiperidine D(-) tartrate]",0.115 mg/kg,22.9 nM
"CN(C[C@@H]1CCCCN1C(=O)Cc1ccc2c(c1)CCCC2=O)C1CCCC1 [Example 18, (2S)-1-[1-oxo-3,4-dihydro-(2H)-napht-6-yl]acetyl-2-(N-cyclopentyl-N-methyl)aminomethyl piperidine hydrochloride .1/4 H2 O]",0.21 mg/kg,
"CCCN(C)C[C@@H]1CCCCN1C(=O)Cc1ccc2c(c1)CCCC2=O [Example 9, (2S)-1-[1-oxo-3,4-dihydro-(2H)-napht-6-yl]acetyl-2-(N-methyl-N-propyl)aminomethyl piperidine hydrochloride]",0.221 mg/kg,10 to 50 nM
"CC(C)N(C)C[C@@H]1CCCCN1C(=O)Cc1ccc2c(c1)CCCC2=O [Example 10, (2S)-1-[1-oxo-3,4-dihydro-(2H)-napht-6-yl]acetyl-2-(N-methyl-N-isopropyl)aminomethyl piperidine hydrochloride emihydrate]",0.078 mg/kg,2.87 nM
"CN(C[C@@H]1CCCCN1C(=O)Cc1ccc2c(c1)CCCC2=O)C1CC1 [Example 12, (2S)-1-[1-oxo-3,4-dihydro-(2H)-napht-6-yl]acetyl-2-(N-cyclopropyl-N-methyl)aminomethyl piperidine hydrochloride]",0.141 mg/kg,50 nM
"CN(C)CC1CC(C)(C)CCN1C(=O)Cc1ccc2c(c1)CCCC2=O (racemic) [Example 5, (±)-1-[1-oxo-3,4-dihydro-(2H)-napht-6-yl]acetyl-2-dimethylaminomethyl-4,4-dimethyl piperidine hydrochloride]",0.377 mg/kg,65 nM
